Measured values as given in patent US11547697B2, “Heterocyclic compounds and uses thereof” (MILLENNIUM PHARMACEUTICALS, INC., priority 2009, dated 2023).
Where two headings read alike, the source gives them in different places.

Legend:
Assay type in all cases: biochemical
[1] = target: p110α/p85α (Homo sapiens (Human), UniProt P42336); assay: PI 3-Kinase (human) HTRF assay, p110α/p85α; conditions: read-out: PI3K α IC50
[2] = target: p110γ (Homo sapiens (Human), UniProt P48736); assay: PI 3-Kinase (human) HTRF assay, p110γ; conditions: read-out: PI3K γ IC50
[3] = target: p110δ/p85α (Homo sapiens (Human), UniProt O00329); assay: PI 3-Kinase (human) HTRF assay, p110δ/p85α; conditions: read-out: PI3K δ IC50
[4] = target: p110β/p85α (Homo sapiens (Human), UniProt P42338); assay: PI 3-Kinase (human) HTRF assay, p110β/p85α; conditions: read-out: PI3K β IC50
Chain of p110β/p85α (P42338 whole entry): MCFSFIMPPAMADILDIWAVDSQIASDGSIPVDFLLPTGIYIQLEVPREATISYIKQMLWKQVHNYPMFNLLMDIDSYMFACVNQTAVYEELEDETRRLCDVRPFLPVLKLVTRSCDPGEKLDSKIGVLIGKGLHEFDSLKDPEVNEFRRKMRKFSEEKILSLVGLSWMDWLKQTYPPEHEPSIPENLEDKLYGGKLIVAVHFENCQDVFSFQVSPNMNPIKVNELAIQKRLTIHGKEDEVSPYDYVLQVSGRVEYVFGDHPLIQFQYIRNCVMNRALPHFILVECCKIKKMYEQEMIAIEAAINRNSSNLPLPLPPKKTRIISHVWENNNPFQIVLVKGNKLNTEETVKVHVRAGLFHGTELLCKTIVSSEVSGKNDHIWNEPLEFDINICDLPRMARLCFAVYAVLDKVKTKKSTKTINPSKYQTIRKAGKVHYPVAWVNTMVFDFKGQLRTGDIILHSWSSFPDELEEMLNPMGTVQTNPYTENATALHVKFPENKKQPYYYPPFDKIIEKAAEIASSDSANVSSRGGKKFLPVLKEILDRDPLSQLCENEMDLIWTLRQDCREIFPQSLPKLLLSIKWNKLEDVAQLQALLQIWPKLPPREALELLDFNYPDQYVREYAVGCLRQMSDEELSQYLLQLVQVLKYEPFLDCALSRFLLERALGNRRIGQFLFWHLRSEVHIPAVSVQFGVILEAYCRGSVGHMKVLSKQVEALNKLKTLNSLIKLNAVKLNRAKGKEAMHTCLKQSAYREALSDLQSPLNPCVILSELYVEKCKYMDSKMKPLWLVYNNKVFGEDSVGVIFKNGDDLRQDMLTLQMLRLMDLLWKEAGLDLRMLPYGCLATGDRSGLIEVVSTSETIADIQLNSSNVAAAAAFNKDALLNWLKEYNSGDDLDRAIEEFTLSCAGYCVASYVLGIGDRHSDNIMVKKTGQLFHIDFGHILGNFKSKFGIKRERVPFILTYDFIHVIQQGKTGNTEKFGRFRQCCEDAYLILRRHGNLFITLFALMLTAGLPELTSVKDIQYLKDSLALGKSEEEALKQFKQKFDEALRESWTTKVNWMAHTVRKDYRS
Chain of p110β/p85α (P27986 whole entry partner): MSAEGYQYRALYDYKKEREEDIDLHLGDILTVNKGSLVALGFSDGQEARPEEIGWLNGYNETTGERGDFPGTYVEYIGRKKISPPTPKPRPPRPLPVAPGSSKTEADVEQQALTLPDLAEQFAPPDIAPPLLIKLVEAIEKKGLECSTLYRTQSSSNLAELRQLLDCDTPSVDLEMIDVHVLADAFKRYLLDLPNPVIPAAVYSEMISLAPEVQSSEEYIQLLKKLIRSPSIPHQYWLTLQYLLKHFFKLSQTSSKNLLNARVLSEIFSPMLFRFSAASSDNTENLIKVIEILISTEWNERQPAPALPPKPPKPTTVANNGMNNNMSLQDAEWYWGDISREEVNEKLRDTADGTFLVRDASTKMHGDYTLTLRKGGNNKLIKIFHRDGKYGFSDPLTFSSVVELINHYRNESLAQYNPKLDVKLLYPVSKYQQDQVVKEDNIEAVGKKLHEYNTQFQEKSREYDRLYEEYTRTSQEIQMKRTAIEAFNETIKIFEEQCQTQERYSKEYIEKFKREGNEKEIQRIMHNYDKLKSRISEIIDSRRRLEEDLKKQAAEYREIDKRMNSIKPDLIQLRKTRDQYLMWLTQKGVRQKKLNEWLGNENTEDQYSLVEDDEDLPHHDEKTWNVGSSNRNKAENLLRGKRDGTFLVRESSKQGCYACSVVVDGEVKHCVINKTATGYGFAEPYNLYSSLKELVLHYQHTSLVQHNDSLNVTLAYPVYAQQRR

Chain of p110α/p85α (P42336 whole entry): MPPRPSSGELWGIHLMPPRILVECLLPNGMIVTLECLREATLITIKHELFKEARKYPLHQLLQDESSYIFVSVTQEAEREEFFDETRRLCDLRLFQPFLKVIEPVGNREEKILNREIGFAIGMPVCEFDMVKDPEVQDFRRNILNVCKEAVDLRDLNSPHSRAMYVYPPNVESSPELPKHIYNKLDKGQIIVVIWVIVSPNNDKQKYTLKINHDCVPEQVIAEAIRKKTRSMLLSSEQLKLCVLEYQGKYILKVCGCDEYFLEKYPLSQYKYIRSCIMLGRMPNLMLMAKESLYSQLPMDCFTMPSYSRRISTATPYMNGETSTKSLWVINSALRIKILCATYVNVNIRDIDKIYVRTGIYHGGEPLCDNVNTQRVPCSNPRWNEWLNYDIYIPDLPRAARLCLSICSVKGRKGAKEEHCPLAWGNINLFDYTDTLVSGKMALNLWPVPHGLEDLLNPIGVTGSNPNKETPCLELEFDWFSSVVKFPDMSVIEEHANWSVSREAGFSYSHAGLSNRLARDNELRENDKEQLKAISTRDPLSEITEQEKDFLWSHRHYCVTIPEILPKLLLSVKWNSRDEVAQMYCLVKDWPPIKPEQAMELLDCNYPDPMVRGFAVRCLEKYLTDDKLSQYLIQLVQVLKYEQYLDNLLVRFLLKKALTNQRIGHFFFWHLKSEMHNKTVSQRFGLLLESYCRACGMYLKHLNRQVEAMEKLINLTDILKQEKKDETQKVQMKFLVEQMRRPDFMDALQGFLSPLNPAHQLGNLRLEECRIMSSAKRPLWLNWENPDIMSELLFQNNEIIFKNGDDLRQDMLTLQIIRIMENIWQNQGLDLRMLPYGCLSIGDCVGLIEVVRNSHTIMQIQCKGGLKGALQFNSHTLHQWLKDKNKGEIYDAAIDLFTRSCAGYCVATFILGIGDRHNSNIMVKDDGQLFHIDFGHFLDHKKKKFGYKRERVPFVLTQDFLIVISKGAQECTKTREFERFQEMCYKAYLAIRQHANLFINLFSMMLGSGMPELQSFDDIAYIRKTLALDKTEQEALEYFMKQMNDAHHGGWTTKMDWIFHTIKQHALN
Chain of p110α/p85α (P27986 whole entry partner): as the sequence (P27986 whole entry partner) above
Chain of p110δ/p85α (O00329 whole entry): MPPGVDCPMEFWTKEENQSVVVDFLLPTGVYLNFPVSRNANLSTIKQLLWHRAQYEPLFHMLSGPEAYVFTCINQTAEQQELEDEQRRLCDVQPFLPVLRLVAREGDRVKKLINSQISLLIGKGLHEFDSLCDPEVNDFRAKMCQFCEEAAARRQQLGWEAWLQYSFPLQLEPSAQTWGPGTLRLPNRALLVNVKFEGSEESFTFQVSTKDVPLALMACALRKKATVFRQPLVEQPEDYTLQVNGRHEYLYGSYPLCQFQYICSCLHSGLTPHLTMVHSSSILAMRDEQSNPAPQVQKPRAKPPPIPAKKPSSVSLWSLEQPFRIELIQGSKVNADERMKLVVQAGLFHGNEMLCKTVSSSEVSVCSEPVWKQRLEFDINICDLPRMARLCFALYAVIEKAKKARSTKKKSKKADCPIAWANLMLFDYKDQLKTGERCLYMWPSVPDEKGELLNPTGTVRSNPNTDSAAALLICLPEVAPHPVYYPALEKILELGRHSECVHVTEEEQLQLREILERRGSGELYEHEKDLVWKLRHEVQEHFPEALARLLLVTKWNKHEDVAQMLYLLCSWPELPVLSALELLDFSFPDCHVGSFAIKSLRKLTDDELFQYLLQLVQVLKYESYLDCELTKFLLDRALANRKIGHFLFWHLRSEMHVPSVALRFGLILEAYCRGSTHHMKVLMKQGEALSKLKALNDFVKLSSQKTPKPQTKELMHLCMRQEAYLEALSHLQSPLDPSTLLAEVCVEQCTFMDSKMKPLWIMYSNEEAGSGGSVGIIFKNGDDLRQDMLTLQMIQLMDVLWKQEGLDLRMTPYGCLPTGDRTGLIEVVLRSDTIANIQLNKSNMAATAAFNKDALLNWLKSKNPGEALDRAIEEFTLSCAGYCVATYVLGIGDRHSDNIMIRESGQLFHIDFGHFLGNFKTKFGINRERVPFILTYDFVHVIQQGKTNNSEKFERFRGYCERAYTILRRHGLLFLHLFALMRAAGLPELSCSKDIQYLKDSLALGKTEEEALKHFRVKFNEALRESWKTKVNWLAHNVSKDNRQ
Chain of p110δ/p85α (P27986 whole entry partner): as the sequence (P27986 whole entry partner) above
Chain of p110γ (P48736 whole entry): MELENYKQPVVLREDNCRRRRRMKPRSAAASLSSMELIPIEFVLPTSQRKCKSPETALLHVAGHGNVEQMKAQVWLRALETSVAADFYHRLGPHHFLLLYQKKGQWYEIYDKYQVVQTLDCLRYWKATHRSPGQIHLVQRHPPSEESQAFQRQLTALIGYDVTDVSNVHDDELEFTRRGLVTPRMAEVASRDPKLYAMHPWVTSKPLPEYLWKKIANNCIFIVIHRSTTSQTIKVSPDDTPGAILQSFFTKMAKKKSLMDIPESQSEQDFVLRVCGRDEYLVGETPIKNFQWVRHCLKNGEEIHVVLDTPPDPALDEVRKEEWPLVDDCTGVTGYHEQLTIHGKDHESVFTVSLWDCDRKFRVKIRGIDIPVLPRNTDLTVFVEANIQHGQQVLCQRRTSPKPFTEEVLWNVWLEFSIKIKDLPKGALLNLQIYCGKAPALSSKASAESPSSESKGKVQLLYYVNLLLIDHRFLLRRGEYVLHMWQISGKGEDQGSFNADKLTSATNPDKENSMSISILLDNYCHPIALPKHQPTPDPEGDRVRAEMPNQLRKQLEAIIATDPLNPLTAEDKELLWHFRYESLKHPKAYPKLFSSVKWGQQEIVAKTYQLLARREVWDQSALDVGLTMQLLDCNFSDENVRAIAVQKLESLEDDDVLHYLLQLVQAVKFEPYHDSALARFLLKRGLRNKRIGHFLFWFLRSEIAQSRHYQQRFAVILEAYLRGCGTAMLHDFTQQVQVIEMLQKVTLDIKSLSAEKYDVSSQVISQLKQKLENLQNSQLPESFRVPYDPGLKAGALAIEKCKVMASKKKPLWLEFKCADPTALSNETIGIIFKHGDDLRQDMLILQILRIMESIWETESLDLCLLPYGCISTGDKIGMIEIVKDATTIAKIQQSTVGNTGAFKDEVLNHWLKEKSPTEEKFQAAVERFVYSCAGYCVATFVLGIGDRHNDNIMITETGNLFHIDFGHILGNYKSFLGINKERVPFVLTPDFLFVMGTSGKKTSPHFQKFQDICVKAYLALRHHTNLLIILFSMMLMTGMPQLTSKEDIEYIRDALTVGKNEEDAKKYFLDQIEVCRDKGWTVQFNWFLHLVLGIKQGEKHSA

## Cn1cc(-c2cnc3ccc(-c4ccc5oc(N)nc5c4)cc3n2)cn1 [compound 94]
[1]
  IC50: < 0.1 µM
[2]
  IC50: < 0.1 µM
[3]
  IC50: < 10 µM
[4]
  IC50: < 1 µM

## CS(=O)(=O)N1CCC(Nc2cnc3ccc(-c4ccc5oc(N)nc5c4)cc3n2)CC1 [compound 95]
[1]
  IC50: < 0.1 µM
[2]
  IC50: < 0.1 µM
[3]
  IC50: < 0.1 µM
[4]
  IC50: < 10 µM

## CC(C)(C#N)c1ccc(Nc2ncnc3ccc(-c4ccc5oc(N)nc5c4)cc23)cc1 [compound 102]
[1]
  IC50: < 0.1 µM
[2]
  IC50: < 0.1 µM
[3]
  IC50: < 1 µM
[4]
  IC50: < 1 µM

## Nc1nc2cc(-c3ccc4ncc(N[C@H]5CC[C@H](O)CC5)nc4c3)ccc2o1 [compound 128]
[1]
  IC50: < 0.1 µM
[2]
  IC50: < 0.1 µM
[3]
  IC50: < 0.1 µM
[4]
  IC50: < 10 µM

## CC1CN(c2cnc3ccc(-c4ccc5oc(N)nc5c4)cc3n2)CC(C)N1 (stereo not drawn) [compound 131]
[1]
  IC50: < 1 µM
[2]
  IC50: < 1 µM
[3]
  IC50: < 1 µM
[4]
  IC50: < 1 µM

## CN1CC(C(=O)N2CCC(Nc3ncnc4ccc(-c5ccc6oc(N)nc6c5)cc34)CC2)C1 [compound 138]
[1]
  IC50: < 0.1 µM
[2]
  IC50: < 1 µM
[3]
  IC50: < 0.1 µM
[4]
  IC50: < 1 µM

## CC(=O)NC1CCN(C(=O)c2cnc3ccc(-c4ccc5oc(N)nc5c4)cn23)CC1 [compound 147]
[1]
  IC50: < 1 µM
[2]
  IC50: < 10 µM
[3]
  IC50: < 10 µM
[4]
  IC50: < 10 µM

## CC1CN(c2cnc3ccc(-c4ccc5oc(N)nc5c4)cc3n2)CCN1 (stereo not drawn) [compound 149]
[1]
  IC50: < 0.1 µM
[2]
  IC50: < 1 µM
[3]
  IC50: < 10 µM
[4]
  IC50: < 0.1 µM

## CN1CCC(N(C)c2cnc3ccc(-c4ccc5oc(N)nc5c4)cc3n2)CC1 [compound 151]
[1]
  IC50: < 0.1 µM
[2]
  IC50: < 10 µM
[3]
  IC50: < 1 µM
[4]
  IC50: < 10 µM

## CN1CCC(N(C)c2ncnc3ccc(-c4ccc5oc(N)nc5c4)cc23)CC1 [compound 155]
[1]
  IC50: < 0.1 µM
[2]
  IC50: < 0.1 µM
[3]
  IC50: < 1 µM
[4]
  IC50: < 0.1 µM

## Nc1nc2cc(-c3ccc4ncc(C(=O)N5CCN(CC6CC6)CC5)n4c3)ccc2o1 [compound 161]
[1]
  IC50: < 1 µM
[2]
  IC50: < 10 µM
[3]
  IC50: < 10 µM
[4]
  IC50: < 10 µM

## Nc1nc2cc(-c3ccc4ncc(C(=O)N5CCC(N6CCOCC6)CC5)n4c3)ccc2o1 [compound 163]
[1]
  IC50: < 1 µM
[2]
  IC50: < 10 µM
[3]
  IC50: < 10 µM
[4]
  IC50: < 10 µM

## CN(C)C1CCN(c2cnc3ccc(-c4ccc5oc(N)nc5c4)cc3n2)CC1 [compound 172]
[1]
  IC50: < 0.1 µM
[2]
  IC50: < 1 µM
[3]
  IC50: < 0.1 µM
[4]
  IC50: < 0.1 µM

## C[C@H]1CN(c2cnc3ccc(-c4ccc5oc(N)nc5c4)cc3n2)CCN1 [compound 178]
[1]
  IC50: < 0.1 µM
[2]
  IC50: < 1 µM
[3]
  IC50: < 1 µM
[4]
  IC50: < 0.1 µM

## CC(C)(C)N1CCN(C(=O)c2cnc3ccc(-c4ccc5oc(N)nc5c4)cn23)CC1 [compound 191]
[1]
  IC50: < 0.1 µM
[2]
  IC50: < 10 µM
[3]
  IC50: < 10 µM
[4]
  IC50: < 10 µM

## NCC(=O)N1CCN(c2cnc3ccc(-c4ccc5oc(N)nc5c4)cc3n2)CC1 [compound 192]
[1]
  IC50: < 0.1 µM
[2]
  IC50: < 1 µM
[3]
  IC50: < 1 µM
[4]
  IC50: < 1 µM

## COC(=O)N1CCN(c2cnc3ccc(-c4ccc5oc(N)nc5c4)cc3n2)CC1 [compound 193]
[1]
  IC50: < 0.1 µM
[2]
  IC50: < 0.1 µM
[3]
  IC50: < 10 µM
[4]
  IC50: < 1 µM

## Nc1nc2cc(-c3ccc4ncc(C(=O)N5CCC5)n4c3)ccc2o1 [compound 197]
[1]; in vitro
  IC50: < 0.1 µM
[2]; in vitro
  IC50: < 0.1 µM
[3]; in vitro
  IC50: < 10 µM
[4]; in vitro
  IC50: < 10 µM

## CS(=O)(=O)CCN1CCN(C(=O)c2cnc3ccc(-c4ccc5oc(N)nc5c4)cn23)CC1 [compound 198]
[1]; in vitro
  IC50: < 0.1 µM
[2]; in vitro
  IC50: < 1 µM
[3]; in vitro
  IC50: < 10 µM
[4]; in vitro
  IC50: < 10 µM

## CS(=O)(=O)CCN1CCC(NC(=O)c2cnc3ccc(-c4ccc5oc(N)nc5c4)cn23)CC1 [compound 199]
[1]; in vitro
  IC50: < 0.1 µM
[2]; in vitro
  IC50: < 0.1 µM
[3]; in vitro
  IC50: < 0.1 µM
[4]; in vitro
  IC50: < 10 µM

## CN1CCC(NC(=O)c2cnc3ccc(-c4ccc5oc(N)nc5c4)nn23)CC1 [compound 203]
[1]; in vitro
  IC50: < 0.1 µM
[2]; in vitro
  IC50: < 0.1 µM
[3]; in vitro
  IC50: < 1 µM
[4]; in vitro
  IC50: < 0.1 µM

## CNC(=O)C1CN(c2cnc3ccc(-c4ccc5oc(N)nc5c4)cc3n2)C1 [compound 214]
[1]; in vitro
  IC50: < 0.1 µM
[2]; in vitro
  IC50: < 1 µM
[3]; in vitro
  IC50: < 10 µM
[4]; in vitro
  IC50: < 0.1 µM

## Nc1nc2cc(-c3ccc4ncc(N5CC(C(=O)NC6CC6)C5)nc4c3)ccc2o1 [compound 215]
[1]; in vitro
  IC50: < 0.1 µM
[2]; in vitro
  IC50: < 1 µM
[3]; in vitro
  IC50: < 10 µM
[4]; in vitro
  IC50: < 1 µM

## Nc1nc2cc(-c3ccc4ncc(N5CC(O)C5)nc4c3)ccc2o1 [compound 216]
[1]; in vitro
  IC50: < 0.1 µM
[2]; in vitro
  IC50: < 0.1 µM
[3]; in vitro
  IC50: < 10 µM
[4]; in vitro
  IC50: < 1 µM

## CN(C)CC(=O)N1CCN(c2cnc3ccc(-c4ccc5oc(N)nc5c4)cc3n2)CC1 [compound 217]
[1]; in vitro
  IC50: < 0.1 µM
[2]; in vitro
  IC50: < 1 µM
[3]; in vitro
  IC50: < 1 µM
[4]; in vitro
  IC50: < 1 µM

## CCN(CC)CCNc1cnc2ccc(-c3ccc4oc(N)nc4c3)cc2n1 [compound 218]
[1]; in vitro
  IC50: < 1 µM
[2]; in vitro
  IC50: < 10 µM
[3]; in vitro
  IC50: < 1 µM
[4]; in vitro
  IC50: < 1 µM

## Nc1nc2cc(-c3ccc4ncc(NCCN5CCCC5)nc4c3)ccc2o1 [compound 219]
[1]; in vitro
  IC50: < 1 µM
[2]; in vitro
  IC50: < 1 µM
[3]; in vitro
  IC50: < 1 µM
[4]; in vitro
  IC50: < 1 µM

## CCN(CC)CCCNc1cnc2ccc(-c3ccc4oc(N)nc4c3)cc2n1 [compound 220]
[1]; in vitro
  IC50: < 0.1 µM
[2]; in vitro
  IC50: < 1 µM
[3]; in vitro
  IC50: < 0.1 µM
[4]; in vitro
  IC50: < 1 µM

## Nc1nc2cc(-c3ccc4ncc(NCCCN5CCCC5)nc4c3)ccc2o1 [compound 221]
[1]; in vitro
  IC50: < 0.1 µM
[2]; in vitro
  IC50: < 0.1 µM
[3]; in vitro
  IC50: < 0.1 µM
[4]; in vitro
  IC50: < 1 µM

## Nc1nc2cc(-c3ccc4ncc(NCCCN5CCOCC5)nc4c3)ccc2o1 [compound 222]
[1]; in vitro
  IC50: < 0.1 µM
[2]; in vitro
  IC50: < 1 µM
[3]; in vitro
  IC50: < 0.1 µM
[4]; in vitro
  IC50: < 1 µM

## Nc1nc2cc(-c3ccc4ncc(N5CCN(C(=O)[C@H]6CCCN6)CC5)nc4c3)ccc2o1 [compound 225]
[1]; in vitro
  IC50: < 0.1 µM
[2]; in vitro
  IC50: < 0.1 µM
[3]; in vitro
  IC50: < 0.1 µM
[4]; in vitro
  IC50: < 0.1 µM

## CN1CCN(C2CCN(c3cnc4ccc(-c5ccc6oc(N)nc6c5)cc4n3)CC2)CC1 [compound 227]
[1]; in vitro
  IC50: < 0.1 µM
[2]; in vitro
  IC50: < 10 µM
[3]; in vitro
  IC50: < 0.1 µM
[4]; in vitro
  IC50: < 1 µM

## Nc1nc2ccc(-c3ccc4nnc(-c5ccncc5)n4c3)cc2o1 [compound 230]
[1]; in vitro
  IC50: < 10 µM
[2]; in vitro
  IC50: < 1 µM
[3]; in vitro
  IC50: < 10 µM
[4]; in vitro
  IC50: < 1 µM

## COc1nc(-c2ccc3oc(N)nc3c2)cnc1N [compound 238]
[1]; in vitro
  IC50: < 1 µM
[2]; in vitro
  IC50: < 1 µM
[3]; in vitro
  IC50: < 10 µM
[4]; in vitro
  IC50: < 1 µM

## CC(Oc1nc(-c2ccc3oc(N)nc3c2)cnc1N)C(F)(F)F (stereo not drawn) [compound 239]
[1]; in vitro
  IC50: < 10 µM
[2]; in vitro
  IC50: < 10 µM
[3]; in vitro
  IC50: < 10 µM
[4]; in vitro
  IC50: < 1 µM

## Nc1nc2ccc(-c3ccc4sc(N)nc4c3)cc2o1 [compound 249]
[1]; in vitro
  IC50: < 0.1 µM
[2]; in vitro
  IC50: < 0.1 µM
[3]; in vitro
  IC50: < 1 µM
[4]; in vitro
  IC50: < 0.1 µM

## CC(=O)Nc1nc2cc(-c3ccc4nc(N)oc4c3)ccc2s1 [compound 251]
[1]; in vitro
  IC50: < 0.1 µM
[2]; in vitro
  IC50: < 0.1 µM
[3]; in vitro
  IC50: < 0.1 µM
[4]; in vitro
  IC50: < 0.1 µM

## Nc1nc2cc(-c3ccc4ncn(CCN5CCCC5)c(=O)c4c3)ccc2o1 [compound 255]
[1]; in vitro
  IC50: < 10 µM
[2]; in vitro
  IC50: < 10 µM
[3]; in vitro
  IC50: < 10 µM
[4]; in vitro
  IC50: < 10 µM

## CCN(CC)CCNC(=O)c1cnc2ccc(-c3ccc4oc(N)nc4c3)cn12 [compound 295]
[1]; in vitro
  IC50: < 1 µM
[2]; in vitro
  IC50: < 1 µM
[3]; in vitro
  IC50: < 1 µM
[4]; in vitro
  IC50: < 1 µM
